These results are taken from patent US9340590B2 (priority 2011, dated 2016).

Experiment in all cases: cell-based
In assay [1] the target is T1, hNav1.7 (Homo sapiens, UniProt Q15858). Conditions: for pIC50: read-out: Nav1.7 Use IC50.
The target of a further assay is hNav1.5 (Homo sapiens, UniProt Q14524). Conditions: IonWorks Quattro, use-dependent block, hNav1.5; read-out: IWQ Use Nav1.5. In general terms: In patch-clamp work, channel activity is measured electrically.
The target in another assay is hNav1.3 (Homo sapiens, UniProt Q9NY46). Conditions: IonWorks Quattro, use-dependent block, hNav1.3; read-out: IWQ Use Nav1.3.
Sequence of hNav1.3 (Q9NY46 whole entry, looked up): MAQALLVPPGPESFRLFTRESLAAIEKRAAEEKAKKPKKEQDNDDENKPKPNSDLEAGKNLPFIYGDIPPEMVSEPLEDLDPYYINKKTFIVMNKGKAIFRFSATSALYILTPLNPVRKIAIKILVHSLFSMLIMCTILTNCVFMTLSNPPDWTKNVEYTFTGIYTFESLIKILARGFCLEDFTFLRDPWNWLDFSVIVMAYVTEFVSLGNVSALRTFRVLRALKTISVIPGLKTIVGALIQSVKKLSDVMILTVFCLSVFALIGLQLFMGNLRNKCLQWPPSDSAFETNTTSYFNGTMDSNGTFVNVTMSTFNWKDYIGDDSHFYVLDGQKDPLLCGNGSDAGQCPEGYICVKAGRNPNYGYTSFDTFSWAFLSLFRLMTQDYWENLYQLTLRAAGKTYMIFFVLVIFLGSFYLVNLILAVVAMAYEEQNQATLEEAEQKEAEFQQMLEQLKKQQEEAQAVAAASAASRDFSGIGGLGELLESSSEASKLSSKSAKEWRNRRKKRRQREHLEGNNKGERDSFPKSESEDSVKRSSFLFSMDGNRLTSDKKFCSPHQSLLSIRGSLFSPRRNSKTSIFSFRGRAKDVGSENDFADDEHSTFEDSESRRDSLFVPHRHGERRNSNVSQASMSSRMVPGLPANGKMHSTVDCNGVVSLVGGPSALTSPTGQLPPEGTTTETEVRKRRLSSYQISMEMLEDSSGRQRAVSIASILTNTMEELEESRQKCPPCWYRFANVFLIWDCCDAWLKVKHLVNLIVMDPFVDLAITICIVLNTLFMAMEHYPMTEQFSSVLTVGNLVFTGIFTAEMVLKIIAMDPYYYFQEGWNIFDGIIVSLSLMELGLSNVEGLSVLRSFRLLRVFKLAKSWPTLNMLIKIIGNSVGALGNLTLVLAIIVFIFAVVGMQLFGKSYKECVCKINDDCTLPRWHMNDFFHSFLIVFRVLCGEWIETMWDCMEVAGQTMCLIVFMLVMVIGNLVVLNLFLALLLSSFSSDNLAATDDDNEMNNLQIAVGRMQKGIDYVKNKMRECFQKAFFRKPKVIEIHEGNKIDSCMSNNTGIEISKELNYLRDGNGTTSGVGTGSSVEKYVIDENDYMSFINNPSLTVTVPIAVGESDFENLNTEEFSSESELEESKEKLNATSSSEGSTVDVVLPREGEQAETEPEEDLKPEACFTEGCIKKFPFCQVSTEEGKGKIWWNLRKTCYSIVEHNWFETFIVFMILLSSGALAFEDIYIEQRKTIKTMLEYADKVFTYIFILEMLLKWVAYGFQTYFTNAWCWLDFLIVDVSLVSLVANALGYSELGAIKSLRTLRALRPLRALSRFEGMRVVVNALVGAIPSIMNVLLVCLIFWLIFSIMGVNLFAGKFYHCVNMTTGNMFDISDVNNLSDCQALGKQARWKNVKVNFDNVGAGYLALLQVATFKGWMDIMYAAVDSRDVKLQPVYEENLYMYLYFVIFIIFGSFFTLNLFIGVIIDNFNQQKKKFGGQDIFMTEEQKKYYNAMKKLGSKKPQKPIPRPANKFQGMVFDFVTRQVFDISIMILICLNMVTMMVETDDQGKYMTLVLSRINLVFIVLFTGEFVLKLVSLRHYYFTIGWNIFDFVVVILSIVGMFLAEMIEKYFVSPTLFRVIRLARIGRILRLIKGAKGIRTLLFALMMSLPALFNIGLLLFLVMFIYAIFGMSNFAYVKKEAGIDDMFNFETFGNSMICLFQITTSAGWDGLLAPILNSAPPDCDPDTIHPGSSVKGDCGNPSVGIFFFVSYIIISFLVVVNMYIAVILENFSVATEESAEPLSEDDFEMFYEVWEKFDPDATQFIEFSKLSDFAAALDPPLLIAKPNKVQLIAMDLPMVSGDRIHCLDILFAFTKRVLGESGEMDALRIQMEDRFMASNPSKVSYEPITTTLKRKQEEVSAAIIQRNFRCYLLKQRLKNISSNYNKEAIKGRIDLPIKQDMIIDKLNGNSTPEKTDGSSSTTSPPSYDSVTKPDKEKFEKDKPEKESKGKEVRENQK
Assay [2] addresses T1, hNav1.7. The class given is cell-based. The following applies: IonWorks Quattro, use-dependent block, hNav1.7; read-out: IWQ Use Nav1.7.

pIC50: −log10 of the molar value. Where two headings read alike, the source gives them in different places. Positions of bridges follow the written chain, without caps; N, C: chain ends. Non-standard residues stand in square brackets, D forms with d. Residues, ends and D or L forms follow the SMILES beside them. *: point of attachment. Biotin = O=C1N[C@H]2[C@H](CS[C@H]2CCCCC(=O)*)N1; Abu = CC[C@H](N)C(=O)O; Ahx = NCCCCCC(=O)O Some results are limits rather than exact numbers.

T1 sequence (Q15858 whole entry, looked up): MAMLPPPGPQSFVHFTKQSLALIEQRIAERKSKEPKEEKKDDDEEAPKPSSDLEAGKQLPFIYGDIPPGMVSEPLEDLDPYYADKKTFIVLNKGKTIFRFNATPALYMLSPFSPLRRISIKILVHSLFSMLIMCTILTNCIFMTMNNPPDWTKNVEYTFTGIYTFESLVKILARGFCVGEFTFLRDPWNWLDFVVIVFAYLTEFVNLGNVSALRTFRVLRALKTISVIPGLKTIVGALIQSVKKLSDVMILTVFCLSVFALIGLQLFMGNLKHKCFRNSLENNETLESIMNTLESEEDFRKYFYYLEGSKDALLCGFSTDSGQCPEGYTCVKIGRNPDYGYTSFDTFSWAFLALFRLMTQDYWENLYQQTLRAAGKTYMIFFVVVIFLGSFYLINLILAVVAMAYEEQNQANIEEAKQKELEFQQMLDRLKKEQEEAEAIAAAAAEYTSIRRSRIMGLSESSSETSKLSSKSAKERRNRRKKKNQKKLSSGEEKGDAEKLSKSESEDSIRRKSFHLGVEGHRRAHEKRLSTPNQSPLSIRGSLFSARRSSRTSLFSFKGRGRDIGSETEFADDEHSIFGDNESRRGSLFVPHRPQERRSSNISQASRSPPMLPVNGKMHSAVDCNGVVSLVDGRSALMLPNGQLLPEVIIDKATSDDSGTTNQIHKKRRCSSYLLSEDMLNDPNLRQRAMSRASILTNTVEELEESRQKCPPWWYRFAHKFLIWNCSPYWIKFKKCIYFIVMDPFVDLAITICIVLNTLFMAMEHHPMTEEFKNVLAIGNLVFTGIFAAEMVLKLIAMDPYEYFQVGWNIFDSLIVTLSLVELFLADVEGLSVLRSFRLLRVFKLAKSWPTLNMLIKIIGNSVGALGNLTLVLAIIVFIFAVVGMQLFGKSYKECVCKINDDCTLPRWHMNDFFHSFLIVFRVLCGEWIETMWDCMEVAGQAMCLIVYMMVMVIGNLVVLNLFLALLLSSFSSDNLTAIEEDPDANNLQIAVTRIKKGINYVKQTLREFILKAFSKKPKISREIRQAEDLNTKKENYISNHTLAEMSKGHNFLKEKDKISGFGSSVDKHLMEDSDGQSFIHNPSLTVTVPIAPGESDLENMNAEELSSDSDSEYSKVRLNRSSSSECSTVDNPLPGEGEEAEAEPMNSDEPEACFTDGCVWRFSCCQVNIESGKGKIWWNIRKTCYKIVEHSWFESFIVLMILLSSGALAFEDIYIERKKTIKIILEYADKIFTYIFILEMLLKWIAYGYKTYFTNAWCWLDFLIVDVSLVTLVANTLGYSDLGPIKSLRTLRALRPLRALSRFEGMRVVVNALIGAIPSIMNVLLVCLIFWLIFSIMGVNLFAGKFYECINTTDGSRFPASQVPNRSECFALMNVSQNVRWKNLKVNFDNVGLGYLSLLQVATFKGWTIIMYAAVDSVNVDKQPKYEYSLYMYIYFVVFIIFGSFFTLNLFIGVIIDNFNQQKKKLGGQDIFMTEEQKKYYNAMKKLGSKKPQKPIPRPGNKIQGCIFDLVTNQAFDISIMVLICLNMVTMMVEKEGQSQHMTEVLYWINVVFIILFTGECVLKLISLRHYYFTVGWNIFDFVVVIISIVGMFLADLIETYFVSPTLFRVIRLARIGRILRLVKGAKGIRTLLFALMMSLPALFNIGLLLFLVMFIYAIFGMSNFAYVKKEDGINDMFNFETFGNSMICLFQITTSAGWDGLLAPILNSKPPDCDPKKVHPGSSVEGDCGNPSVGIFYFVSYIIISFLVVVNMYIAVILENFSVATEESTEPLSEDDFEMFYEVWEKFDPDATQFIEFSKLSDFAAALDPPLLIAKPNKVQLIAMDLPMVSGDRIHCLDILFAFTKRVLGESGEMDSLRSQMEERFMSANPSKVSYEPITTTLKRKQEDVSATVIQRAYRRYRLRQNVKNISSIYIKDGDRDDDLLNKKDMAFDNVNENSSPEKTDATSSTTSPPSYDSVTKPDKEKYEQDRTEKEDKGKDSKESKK

On to `CC[C@@H]1NC(=O)CNC(=O)[C@H](CC(C)C)NC(=O)[C@@H](NC(=O)[C@H](CC(=O)O)NC(=O)CCCCCNC(=O)CCCC[C@@H]2SC[C@@H]3NC(=O)N[C@@H]32)CSSC[C@@H]2NC(=O)[C@@H]3CSSC[C@@H](C(=O)N[C@@H](CCCCN)C(=O)N[C@@H](Cc4ccc(O)cc4)C(=O)N[C@H](C(=O)N[C@@H](Cc4ccccc4)C(N)=O)C(C)C)NC(=O)[C@H](Cc4c[nH]c5ccccc45)NC(=O)[C@H](CCCNC(=N)N)NC(=O)[C@H](Cc4c[nH]cn4)NC(=O)[C@H]([C@@H](C)O)NC(=O)[C@H](CCCNC(=N)N)NC(=O)[C@H](CO)NC(=O)[C@H](CSSC[C@H](NC(=O)[C@H](CCCCN)NC(=O)[C@H](CCCNC(=N)N)NC(=O)[C@H](CC(C)C)NC1=O)C(=O)N[C@@H]([C@@H](C)CC)C(=O)N1CCC[C@H]1C(=O)N[C@@H](CC(=O)O)C(=O)N[C@@H](CC)C(=O)N[C@@H](CC(=O)O)C(=O)N[C@@H](CCCCN)C(=O)N3)NC(=O)[C@H](C(C)C)NC(=O)[C@H](CC(C)C)NC(=O)[C@H](CC(N)=O)NC(=O)[C@@H]1CCCN1C(=O)[C@H](CCCNC(=N)N)NC2=O` ({Biotin-Ahx}-DCLG[Abu]LRKCIPD[Abu]DKCCRPNLVCSRTHRWCKYVF-NH2; disulfide 2-17, 9-23, 16-30), for which, at hNav1.7 [1], the “Nav1.4/Nav1.7 Use” value was determined as 2482 and the “Nav1.5/Nav1.7 Use” value is listed as greater than 909.

On to `CC[C@H](C)[C@@H]1NC(=O)[C@@H]2CSSC[C@@H]3NC(=O)[C@H](C(C)C)NC(=O)[C@H](CC(C)C)NC(=O)[C@H](CC(N)=O)NC(=O)[C@@H]4CCCN4C(=O)[C@H](CCCNC(=N)N)NC(=O)[C@H](CSSC[C@H](NC(=O)[C@@H](N)CC(=O)O)C(=O)N[C@@H](CC(C)C)C(=O)N[C@@H](CCCCN)C(=O)N[C@@H](Cc4ccccc4)C(=O)N[C@@H](CCSC)C(=O)N[C@@H](CCCNC(=N)N)C(=O)N[C@@H](CCCCN)C(=O)N2)NC(=O)[C@H](CSSC[C@@H](C(=O)N[C@@H](CCCCN)C(=O)N[C@@H](Cc2ccc(O)cc2)C(=O)N[C@H](C(=O)N[C@@H](Cc2ccccc2)C(N)=O)C(C)C)NC(=O)[C@H](Cc2c[nH]c4ccccc24)NC(=O)[C@H](CCCCN)NC(=O)[C@H](Cc2c[nH]cn2)NC(=O)[C@H]([C@@H](C)O)NC(=O)[C@H](CCCNC(=N)N)NC(=O)[C@H](CO)NC3=O)NC(=O)[C@H](CCCCN)NC(=O)[C@H](CC(=O)O)NC(=O)[C@H](CC(N)=O)NC(=O)[C@H](CC(=O)O)NC(=O)[C@@H]2CCCN2C1=O` [SEQ ID NO: 39] (H-DCLKFMRKCIPDNDKCCRPNLVCSRTHKWCKYVF-NH2; disulfide 2-17, 9-23, 16-30), for which the pIC50 at hNav1.7 [1] is 8.22.

Take `CC[C@H](C)[C@@H]1NC(=O)[C@@H]2CSSC[C@@H]3NC(=O)[C@H](C(C)C)NC(=O)[C@H](CC(C)C)NC(=O)[C@H](CC(N)=O)NC(=O)[C@@H]4CCCN4C(=O)[C@H](CCCNC(=N)N)NC(=O)[C@H](CSSC[C@H](NC(=O)[C@@H](N)CC(=O)O)C(=O)N[C@@H](CC(C)C)C(=O)N[C@@H](CCCNC(=N)N)C(=O)N[C@@H](Cc4ccccc4)C(=O)N[C@@H](CCSC)C(=O)N[C@@H](CCCNC(=N)N)C(=O)N[C@@H](CCCCN)C(=O)N2)NC(=O)[C@H](CSSC[C@@H](C(=O)N[C@@H](CCCCN)C(=O)N[C@@H](Cc2ccc(O)cc2)C(=O)N[C@H](C(=O)N[C@@H](Cc2ccccc2)C(N)=O)C(C)C)NC(=O)[C@H](Cc2c[nH]c4ccccc24)NC(=O)[C@H](CCCCN)NC(=O)[C@H](Cc2c[nH]cn2)NC(=O)[C@H]([C@@H](C)O)NC(=O)[C@H](CCCNC(=N)N)NC(=O)[C@H](CO)NC3=O)NC(=O)[C@H](CCCCN)NC(=O)[C@H](CC(=O)O)NC(=O)[C@H](CC(N)=O)NC(=O)[C@H](CC(=O)O)NC(=O)[C@@H]2CCCN2C1=O` [SEQ ID NO: 63] (H-DCLRFMRKCIPDNDKCCRPNLVCSRTHKWCKYVF-NH2; disulfide 2-17, 9-23, 16-30): the pIC50 on hNav1.7 [1] is 8.52.

Take `CC[C@H](C)[C@@H]1NC(=O)[C@@H]2CSSC[C@@H]3NC(=O)[C@H](C(C)C)NC(=O)[C@H](CC(C)C)NC(=O)[C@H](CC(N)=O)NC(=O)[C@@H]4CCCN4C(=O)[C@H](CCCNC(=N)N)NC(=O)[C@H](CSSC[C@H](NC(=O)[C@@H](N)CC(=O)O)C(=O)N[C@@H](CC(C)C)C(=O)NCC(=O)NCC(=O)N[C@@H](CCSC)C(=O)N[C@@H](CCCNC(=N)N)C(=O)N[C@@H](CCCCN)C(=O)N2)NC(=O)[C@H](CSSC[C@@H](C(=O)N[C@@H](CCCCN)C(=O)N[C@@H](Cc2ccc(O)cc2)C(=O)N[C@H](C(=O)N[C@@H](Cc2ccccc2)C(N)=O)C(C)C)NC(=O)[C@H](Cc2c[nH]c4ccccc24)NC(=O)[C@H](CCCCN)NC(=O)[C@H](Cc2c[nH]cn2)NC(=O)[C@H]([C@@H](C)O)NC(=O)[C@H](CCCNC(=N)N)NC(=O)[C@H](CO)NC3=O)NC(=O)[C@H](CCCCN)NC(=O)[C@H](CC(=O)O)NC(=O)[C@H](CC(N)=O)NC(=O)[C@H](CC(=O)O)NC(=O)[C@@H]2CCCN2C1=O` [SEQ ID NO: 265] (H-DCLGGMRKCIPDNDKCCRPNLVCSRTHKWCKYVF-NH2; disulfide 2-17, 9-23, 16-30): at hNav1.7 [1], the pIC50 was 8.05.

As for `CC[C@H](C)[C@@H]1NC(=O)[C@@H]2CSSC[C@@H]3NC(=O)[C@H](C(C)C)NC(=O)[C@H](CC(C)C)NC(=O)[C@H](CC(N)=O)NC(=O)[C@@H]4CCCN4C(=O)[C@H](CCCNC(=N)N)NC(=O)[C@H](CSSC[C@H](NC(=O)[C@@H](N)CC(=O)O)C(=O)N[C@@H](CC(C)C)C(=O)NCC(=O)N[C@@H](C)C(=O)N[C@@H](CC(C)C)C(=O)N[C@@H](CCCNC(=N)N)C(=O)N[C@@H](CCCCN)C(=O)N2)NC(=O)[C@H](CSSC[C@@H](C(=O)N[C@@H](CCCCN)C(=O)N[C@@H](Cc2ccc(O)cc2)C(=O)N[C@H](C(=O)N[C@@H](Cc2ccccc2)C(=O)O)C(C)C)NC(=O)[C@H](Cc2c[nH]c4ccccc24)NC(=O)[C@H](CCCNC(=N)N)NC(=O)[C@H](Cc2c[nH]cn2)NC(=O)[C@H]([C@@H](C)O)NC(=O)[C@H](CCCNC(=N)N)NC(=O)[C@H](CO)NC3=O)NC(=O)[C@H](CCCCN)NC(=O)[C@H](CC(=O)O)NC(=O)[C@H](CCCNC(=N)N)NC(=O)[C@H](CC(=O)O)NC(=O)[C@@H]2CCCN2C1=O` [compound 870] (H-DCLGALRKCIPDRDKCCRPNLVCSRTHRWCKYVF-OH; disulfide 2-17, 9-23, 16-30), the results for the pIC50 on hNav1.5, on hNav1.3 and at hNav1.7 [2] were less than 5.30, 5.85 and less than 5.30, respectively.

Consider `CC[C@H](C)[C@@H]1NC(=O)[C@@H]2CSSC[C@@H]3NC(=O)[C@H](C(C)C)NC(=O)[C@H](CC(C)C)NC(=O)[C@H](CC(N)=O)NC(=O)[C@@H]4CCCN4C(=O)[C@H](CCCNC(=N)N)NC(=O)[C@H](CSSC[C@H](NC(=O)[C@@H](N)CC(=O)O)C(=O)N[C@@H](CC(C)C)C(=O)NCC(=O)N[C@@H](C)C(=O)N[C@@H](CC(C)C)C(=O)N[C@@H](CCCNC(=N)N)C(=O)N[C@@H](CCCCN)C(=O)N2)NC(=O)[C@H](CSSC[C@@H](C(=O)N[C@@H](CCCCN)C(=O)N[C@@H](Cc2ccc(O)cc2)C(=O)N[C@H](C(=O)N[C@@H](Cc2ccccc2)C(=O)O)C(C)C)NC(=O)[C@H](Cc2c[nH]c4ccccc24)NC(=O)[C@H](CCCNC(=N)N)NC(=O)[C@H](Cc2c[nH]cn2)NC(=O)[C@H]([C@@H](C)O)NC(=O)[C@H](CCCNC(=N)N)NC(=O)[C@H](CO)NC3=O)NC(=O)[C@H](CCCCN)NC(=O)[C@H](CC(=O)O)NC(=O)[C@H](CO)NC(=O)[C@H](CC(=O)O)NC(=O)[C@@H]2CCCN2C1=O` [compound 871] (H-DCLGALRKCIPDSDKCCRPNLVCSRTHRWCKYVF-OH; disulfide 2-17, 9-23, 16-30), for which the pIC50 at hNav1.5, on hNav1.3 and on hNav1.7 [2] was less than 5.30 in each case.

Turning to `CC[C@H](C)[C@@H]1NC(=O)[C@@H]2CSSC[C@@H]3NC(=O)[C@H](C(C)C)NC(=O)[C@H](CC(C)C)NC(=O)[C@H](CC(N)=O)NC(=O)[C@@H]4CCCN4C(=O)[C@H](CCCNC(=N)N)NC(=O)[C@H](CSSC[C@H](NC(=O)[C@@H](N)CC(=O)O)C(=O)N[C@@H](CC(C)C)C(=O)NCC(=O)N[C@@H](C)C(=O)N[C@@H](CC(C)C)C(=O)N[C@@H](CCCNC(=N)N)C(=O)N[C@@H](CCCCN)C(=O)N2)NC(=O)[C@H](CSSC[C@@H](C(=O)N[C@@H](CCCCN)C(=O)N[C@@H](Cc2ccc(O)cc2)C(=O)N[C@H](C(=O)N[C@@H](Cc2ccccc2)C(=O)O)C(C)C)NC(=O)[C@H](Cc2c[nH]c4ccccc24)NC(=O)[C@H](CCCNC(=N)N)NC(=O)[C@H](Cc2c[nH]cn2)NC(=O)[C@H]([C@@H](C)O)NC(=O)[C@H](CCCNC(=N)N)NC(=O)[C@H](CO)NC3=O)NC(=O)[C@H](CCCCN)NC(=O)[C@H](CC(=O)O)NC(=O)[C@H](C(C)C)NC(=O)[C@H](CC(=O)O)NC(=O)[C@@H]2CCCN2C1=O` [compound 872] (H-DCLGALRKCIPDVDKCCRPNLVCSRTHRWCKYVF-OH; disulfide 2-17, 9-23, 16-30), the pIC50 at hNav1.5, on hNav1.3 and on hNav1.7 [2] was less than 5.30 throughout.

For the compound `CC[C@H](C)[C@@H]1NC(=O)[C@@H]2CSSC[C@@H]3NC(=O)[C@H](C(C)C)NC(=O)[C@H](CC(C)C)NC(=O)[C@H](CC(N)=O)NC(=O)[C@@H]4CCCN4C(=O)[C@H](CCCNC(=N)N)NC(=O)[C@H](CSSC[C@H](NC(=O)[C@@H](N)CC(=O)O)C(=O)N[C@@H](CC(C)C)C(=O)NCC(=O)N[C@@H](C)C(=O)N[C@@H](CC(C)C)C(=O)N[C@@H](CCCNC(=N)N)C(=O)N[C@@H](CCCCN)C(=O)N2)NC(=O)[C@H](CSSC[C@@H](C(=O)N[C@@H](CCCCN)C(=O)N[C@@H](Cc2ccc(O)cc2)C(=O)N[C@H](C(=O)N[C@@H](Cc2ccccc2)C(=O)O)C(C)C)NC(=O)[C@H](Cc2c[nH]c4ccccc24)NC(=O)[C@H](CCCNC(=N)N)NC(=O)[C@H](Cc2c[nH]cn2)NC(=O)[C@H]([C@@H](C)O)NC(=O)[C@H](CCCNC(=N)N)NC(=O)[C@H](CO)NC3=O)NC(=O)[C@H](CCCCN)NC(=O)[C@H](CC(=O)O)NC(=O)[C@H](Cc2ccc(O)cc2)NC(=O)[C@H](CC(=O)O)NC(=O)[C@@H]2CCCN2C1=O` [compound 873] (H-DCLGALRKCIPDYDKCCRPNLVCSRTHRWCKYVF-OH; disulfide 2-17, 9-23, 16-30), the pIC50 at hNav1.5 was less than 5.30; on hNav1.3, less than 5.30; at hNav1.7 [2], 5.32.
